{"source": "patent US20200289645A1", "about": "“TREATMENTS AND METHODS FOR CONTROLLING HYPERTENSION” (Georgetown University, priority 2017, published 2020)", "key": {"FGF2−/− mice": {"system": "FGF2−/− mice", "test": "Telemetric MAP in FGF2-/- mice after exogenously administered AngII", "format": "in vivo", "settings": "FGF2−/− relative to wild-type mice", "excerpt": "Kidneys contain amongst the highest concentrations of FGF2 protein that is immobilized in the extracellular matrix and can be released by BP1. To assess a contribution by FGF2, the efficacy of AngII was investigated and the crosstalk with BP1 in renal afferent arterioles from FGF2−/− mice. […] Also, the effect of exogenously administered AngII on MAP was reduced."}, "[1]": {"system": "isolated renal afferent arterioles", "test": "Isolated perfused renal afferent arteriole contractility", "format": "cell-based, mice", "excerpt": "FIG. 4 depicts the effect of BP1 on isolated renal afferent arteriole contractility. 4A, Isolated perfused renal afferent arteriole mounted on a perfusion pipette with diameter recorded. The internal diameter is 10 to 11 micrometers under control conditions (=100%). 4B to 4D, Impact of BP1 induction and/or FGF2 knockout (FGF2−/−) on angiotensin II (AngII) or norepinephine (NE) contractility. 4B, Effect of conditional BP1 expression (BP1 ON/OFF). […] The effect of AngII in FGF2−/− mice is shown for comparison (see panel C). 4C, Effect of AngII in afferent arterioles from FGF2−/− mice. […] BP1 alone or FGF2 alone are shown for comparison. 4D, Effect of NE in afferent arterioles from wt and FGF2−/− mice. Contractility induced by NE is not affected in FGF2−/− mice.\nIsolated vessels provide an approach for the analysis of vascular function that is not affected by systemic cardiovascular regulation in the intact animal. BP1 up-regulation related to human hypertension was found in the kidneys that are key organs in systemic blood pressure regulation. Thus, the impact of BP1 expression was evaluated in isolated renal afferent arterioles that are the major renal resistance vessels. […] Addition of AngII to this preparation leads to a concentration-dependent constriction. […] Thus, the AngII contractile effect depends on FGFR signaling in isolated vessels as well as in arterioles in vivo (FIG. 3B).\nThe blockade of AngII effects in vessels from wt mice by an FGFR kinase inhibitor (FIG. 4B) corroborates the crucial role of FGF signaling for AngII efficacy. It is noteworthy that vessels from FGF2−/− mice still contracted in response to other ligands. For example, the effect of norepinephrine (NE) was indistinguishable between FGF2−/− and wt controls (FIG. 4D) indicating a selective crosstalk between AngII and FGF signaling. Renal AngII receptor 1 (AT1R) mRNA was not changed upon induction of BP1 expression or in FGF2−/− mice.\nBecause FGF2 and BP1 are extracellularly acting proteins, recombinant proteins were added to renal afferent arterioles from FGF2−/− mice to assess if this would rescue AngII vasoconstriction."}, "cremaster arterioles": {"system": "cremaster arterioles", "test": "Cremaster arteriole contractility in vivo (superfusion, intravital microscopy)", "parameters": "species or system mice", "experimental": "FIG. 3 depicts the effect of the induction of BP1 expression on cremaster arteriole contractility in vivo. 3A, Representative images of a single arteriole in a live animal at baseline, and after constriction or dilation by superfusion with AngII or acetylcholine respectively. The vessel diameter is recorded by intravital microphotography. 3B, Dose-response of AngII on arteriole diameter in mice with BP1 OFF (open symbols) or ON (for 48 hours; closed symbols). The FGFR kinase inhibitor PD173074 (PD) was administered intraperitoneally to a subset of animals (red symbols). […] 3C, Dose response of Phenylephrine (PE) on cremaster arteriole diameter in mice with BP1 OFF (open symbols) or ON (for 48 hours; closed symbols). Mean±SEM, n=4 animals/group.\nTo evaluate whether conditional BP1 expression sensitized resistance vessels in vivo, cremaster arterioles were exposed in anesthetized mice and superfused locally with vasoconstrictor or -dilator ligands. Representative intravital microscopic images of an arteriole at baseline, with AngII (constriction) or acetylcholine (dilation) superfusion is shown in FIG. 3A. […] This sensitization was prevented by pretreatment of animals with the FGFR kinase inhibitor PD173074 23 (FIG. 3B).\nThus, phenylephrine (PE) was selected as a ligand that activates alphal-adrenergic receptors. […] Neither the EC50 (2 μM) nor the maximal effect of PE were different between the BP1 ON and OFF groups (FIG. 3C). Thus, conditional expression of BP1 sensitizes arterioles to AngII in vivo. This sensitization was dependent on FGFR signaling."}, "[2]": {"system": "conscious transgenic mice", "test": "Mean arterial pressure (MAP) by telemetry in conscious conditional BP1 transgenic mice", "format": "in vivo", "settings": "night time MAP", "experimental": "FIG. 2 depicts the effect of conditional expression of the BP1 transgene and of inhibitors on mean arterial pressure (MAP) and heart rate (HR). 2A, 2B, Circadian changes in MAP (A) and HR (B) by telemetry of conscious mice. Averages for 10 days before (BP1 OFF, open symbols) and 10 days after the induction of the BP1 transgene (BP1 ON, closed symbols) relative to the 24 hour clock time. Dark and light periods are indicated. Mean±SEM values (for n=10 time points) from one representative animal (total n=6). P<0.0001 by non-linear regression analysis and ANOVA. 2C, Effect of induction of BP1 transgene expression on night time MAP. Gene expression was induced by switching from a tetracycline containing to a regular chow (+DOX to −DOX; open and filled circles). Non-transgenic littermates (non-TG; triangles) were subjected to the same diet schedule. Mean±SEM of night time MAP; n=6 per group. ANOVA analysis of BP1 ON versus OFF or versus control group. ***, P<0.0001. 2D, 2E, Effect of treatment with candesartan (D) or tempol (E) on night time MAP of animals with the BP1 transgene OFF or ON. Mean±SEM; n=5 per group. *, P<0.05; **, P<0.01; ***, P<0.0001 by ANOVA.\nTo test the effect of conditional expression of BP1, mean arterial pressure (MAP) was monitored by telemetry in conscious transgenic mice. Under control conditions (BP1 OFF) there was a circadian rhythm of MAP that varied by 20 mm Hg between periods of activity (night time) and rest (day time). A sinus wave function described the day/night variation of the data (FIG. 2A). […] This overall increase in MAP coincided with a significant decrease in the heart rate and a dampened amplitude of circadian regulation (FIG. 2B). The increase of blood pressure occurred within two days of a switch to the tetracycline-free, regular diet in parallel with the induction of the BP1 transgene (FIG. 2C).\nThe increase in MAP and decrease in heart rate after induction of BP1 expression (FIG. 2A,B) was reminiscent of an angiotensin-like vasopressor effect that depends on reactive oxygen species (ROS) signaling. […]"}}, "note": "Entries after “also recorded” stand apart in the source; their conditions may differ."}
{"compound": "CC[C@H](C)[C@H](NC(=O)[C@H](Cc1ccc(O)cc1)NC(=O)[C@@H](NC(=O)[C@H](CCCNC(=N)N)NC(=O)[C@@H](N)CC(=O)O)C(C)C)C(=O)N[C@@H](Cc1c[nH]cn1)C(=O)N1CCC[C@H]1C(=O)N[C@@H](Cc1ccccc1)C(=O)O", "note": "[AngII, Angiotensin II]", "values": [{"measurement": "effect of exogenously administered AngII on MAP", "setting": "FGF2−/− mice", "result": "reduced"}, {"measurement": "AngII effect in afferent arterioles after conditional BP1 transgene expression", "setting": "[1]; BP1 ON versus OFF", "result": "increases the AngII effect; also recorded: significantly enhanced effect"}, {"measurement": "contraction of afferent arterioles from FGF2-/- mice", "setting": "[1]; FGF2−/− mice", "result": "abolished; also recorded: failed to induce a contraction"}]}
{"compound": "CCN(CC)CCCCNc1ncc2cc(-c3cc(OC)cc(OC)c3)c(NC(=O)NC(C)(C)C)nc2n1", "note": "[PD173074]", "values": [{"measurement": "effect on AngII constriction of afferent arterioles", "setting": "[1]; 100 nM pretreatment of vessels", "result": "inhibited the effect of AngII"}, {"measurement": "effect on AngII response in control animals", "setting": "cremaster arterioles; BP1 OFF, intraperitoneal", "result": "small and insignificant effect"}, {"measurement": "effect on BP1-induced sensitization to AngII vasoconstriction", "setting": "cremaster arterioles; BP1 ON, pretreatment, intraperitoneal", "result": "prevented"}]}
{"compound": "CNC[C@H](O)c1cccc(O)c1", "note": "[PE, phenylephrine]", "values": [{"measurement": "sensitization of vessels by BP1 expression", "setting": "cremaster arterioles; BP1 ON versus OFF", "result": "did not sensitize"}, {"measurement": "EC50", "setting": "cremaster arterioles; Mus musculus, not different between BP1 ON and OFF groups, read-out: EC50 of PE on cremaster arteriole diameter", "result": 2000, "unit": "nM"}]}
{"compound": "CC1(C)CC(O)CC(C)(C)N1[O]", "note": "[Tempol, tempol]", "values": [{"measurement": "effect on basal MAP", "setting": "[2]; BP1 OFF", "result": "reduced basal MAP"}, {"measurement": "effect on increase of MAP after BP1 induction", "setting": "[2]", "result": "prevented the increase in MAP after BP1 induction"}, {"measurement": "effect on increase of MAP after BP1 induction", "setting": "[2]; listed as tempol", "result": "prevented"}]}
{"compound": "NC[C@H](O)c1ccc(O)c(O)c1", "note": "[norepinephrine]", "values": [{"measurement": "contractility in FGF2-/- versus wt afferent arterioles", "setting": "[1]", "result": "indistinguishable"}, {"measurement": "contractility in FGF2-/- versus wt afferent arterioles", "setting": "[1]; listed as NE", "result": "not affected"}]}
{"compound": "FGF2: recombinant fibroblast growth factor 2 protein", "values": [{"measurement": "rescue of AngII vasoconstriction in afferent arterioles from FGF2-/- mice", "setting": "[1]; recombinant proteins added, 20 ng/ml for 30 min", "result": "did not impact the AngII response"}]}
